Measurements reported in patent publication US11427591B2, “Kinase inhibitors” (priority 2018, dated 2022).
Where two headings read alike, the source gives them in different places. Each block holds one compound with its values, some of them ahead of it.

Assays:
[1] = test system: Human hepatic stellate cell LX-2; experiment: LX-2 Fibrosis Assay (inhibition of collagen production, TGF-b stimulated); type: cell-based
Procedure: Human hepatic stellate cell LX-2 were grown in DMEM (Invitrogen, 11960) supplied with 1% MEM Non-Essential Amino Acids (Invitrogen, 11140-050), 2% fetal bovine serum (Hyclone, SV30087.03), Penicillin (100 U/mL)-streptomycin (100 μg/mL) (Millipore, TMS-AB2-C) and 2 mM L-Glutamine (Invitrogen, 25030-001). After the cells grew in 12-well plates for 24 hours, the cell culture medium was changed to the same as above except using 0.4% fetal bovine serum. After 20 hour growth in the reduced serum medium, the cells were treated with indicated doses of compounds for 30 minutes. Subsequently, the cells were stimulated with 4 ng/mL TGF-b (R&D Systems, 240-B-002) for 48 hours. The cells were rinsed twice with DPBS before being harvested with 100 μL RIPA buffer (Sigma, R0278) supplemented with protease inhibitor cocktail (Roche, 04693132001) at 4° C. The total protein in each sample was quantified using BCA Protein Assay Kit (Pierce™, 23227) and equal amount of total protein of each sample was subject to Western blot analysis. Antibodies used were mouse anti-α-Actin (SPM332) (sc-365970), mouse anti-CTGF (E5) (sc-365970), and mouse anti-collagen α1 (3G3) (sc-293182), from Santa Cruz Biotechnologies; and mouse anti-GAPDH (6C5) (EMD Millipore, MAB374). […] As such, these compounds be used as inhibitors of fibrosis by inhibiting function of the discoidin domain receptor family.

[2] = Cytotoxicity, CellTiter-Glo Luminescent Cell Viability Assay; conditions: human, LX-2 cells
Procedure: (§1) LX-2 cells were seeded into 96 well plates in the presence of compounds and allowed to grow for 72 hours before CellTiter-Glo® Luminescent Cell Viability Assay was carried out according the manufacturer's instruction.

[3] = test system: primary tumor cells freshly isolated from patient derived xenograft tumor model; experiment: Cholangiocarcinoma (bile duct cancer) tumor chemosensitivity assay (TCA), anti-proliferation; type: cell-based; conditions: for Max (%) / Min (%): inhibition rate
Procedure: Cholangiocarcinoma (Bile Duct Cancer)
All the compounds were tested starting from 30 μM, 3-fold serial dilution.
(§2) Add 195 μL of assay medium into each well of the V-bottom plate; then transfer 5 μL of the stock compound solution of each concentration from the stock plate (400× stock). Add 5 μL of DMSO into the Blank and Control wells. Pipette up and down to mix well. This V-plate is designated as the 10× concentrate compound plate.
For cell viability test, add compounds as below. Then incubate the plates at 37° C., 5% CO2, 95% air and 100% relative humidity for 3 days or 6 days. For day 0 plate, add 15 μL of the DMSO-medium into the Control wells. The final DMSO concentration was 0.25%. Proceed to cell viability assay. For TCA plates, add 15 μL of the compound-medium from the 10× concentrate compound plate into the cells in 96-well assay plate according to the plate map. Add 15 μL of the DMSO-medium into the Blank and Control wells. The final DMSO concentration was 0.25%.
The procedures were performed according to the Promega CellTiter-Glo Luminescent Cell Viability Assay Kit (Promega-G7573): Thaw the CellTiter-Glo buffer and equilibrate to room temperature prior to use; Equilibrate the lyophilized CellTiter-Glo Substrate to room temperature prior to use; Transfer the entire liquid volume of CellTiter-Glo Buffer into the amber bottle containing CellTiter-Glo Substrate to reconstitute the lyophilized enzyme/substrate mixture. This forms the CellTiter-Glo Reagent; Mix by gently vortexing to obtain a homogeneous solution; Equilibrate the plate and its contents to room temperature for approximately 30 minutes; Add 75 μL (equal to the half volume of culture medium present in each well) CellTiter-Glo Reagent in each well. Cover plates with aluminum foil to protect from light; Mix contents for 2 minutes on an orbital shaker to induce cell lysis; Allow the plate to incubate at room temperature for 10 minutes to stabilize luminescent signal; and Transfer the mixture of cell and CTG buffer to the detection 96 well plate and record luminescence on the 2104 EnVision plate reader. An ATP standard curve at the same time points is prepared.
Inhibition rate (IR) of the tested compounds was determined by the following formula: IR (%)=(1−(RLU compound−RLU blank)/(RLU control−RLU blank))*100%. The inhibitions of different dose of compound were calculated in Excel file, and then were used to plot inhibition curve and evaluate related parameters, such as Min, Max and IC50. The data were interpreted by GraphPad Prism software. […]

[4] = test system: primary tumor cells freshly isolated from PC-07-0024 patient derived xenograft (PDX) tumor model; experiment: Pancreatic cancer tumor chemosensitivity assay (TCA), anti-proliferation, PC-07-0024; type: cell-based; conditions: for IC50: Homo sapiens
Procedure: (§3) Compound 1 is compared to Gemcitabine, which is a chemotherapy drug used in various types of cancers (e.g., breast cancer, ovarian cancer, non-small cell lung cancer, pancreatic cancer, and bladder cancer). The compounds, at 30 μM, 3 fold serial dilution, are tested in primary tumor cells freshly isolated from PC-07-0024 and LU-01-0523 patient derived xenograft (PDX) tumor model using tumor chemosensitivity assay (TCA).
as §2, with “The study was performed as follows. Add 195” for “Add 195”
(§4) For cell viability test, add compounds as below. Then incubate the plates at 37° C., 5% CO2, 95% air and 100% relative humidity for 3 days or 6 days. For day 0 plate, add 15 μL of the DMSO-medium into the Control wells. The final DMSO concentration was 0.25%. Proceed to cell viability assay. For TCA plates, add 15 μL of the compound-medium from the 10× concentrate compound plate into the cells in 96-well assay plate according to the plate map. Add 15 μL of the DMSO-medium into the Blank and Control wells. The final DMSO concentration was 0.25%. The assay is performed similar to the protocol of the bile duct cancer study provided above.

[5] = test system: primary tumor cells freshly isolated from LU-01-0523 patient derived xenograft (PDX) tumor model; experiment: Tumor chemosensitivity assay (TCA), anti-proliferation, LU-01-0523; type: cell-based; conditions: for IC50: Homo sapiens
Procedure: as §3
as §2, with “The study was performed as follows. Add 195” for “Add 195”
as §4

[6] = test system: LX-2 cells; experiment: Cytotoxicity, CellTiter-Glo Luminescent Cell Viability Assay
Procedure: as §1

[7] = 72 h, read-out: Relative IC50 (μM)
[8] = 144 h, read-out: Relative IC50 (μM)
[9] = 4 ng/mL TGF-b, 48 hours, read-out: Inhibition of Collagen Production in LX-2 Cells IC50

IC50 ([1]; Homo sapiens, LX-2, 48 h, read-out: Inhibition of Collagen Production in LX-2 Cells IC50(nM)): 13 nM
IC50 ([3]; Homo sapiens, 72 h): > 30000 nM
IC50 ([3]; Homo sapiens, 144 h): > 30000 nM
IC50 [4, 7]: 5.7 µM
IC50 [4, 8]: 2.65 µM
IC50 [5, 7]: > 30 µM
IC50 [5, 8]: > 30 µM
SMILES: Cc1ccc2c(Nc3cccc(C(F)(F)F)c3)noc2c1C#Cc1cnc2cccnn12 [Compound 1, 7-(Imidazo[1,2-b]pyridazin-3-ylethynyl)-6-methyl-N-(3-(trifluoromethyl)phenyl)benzo[d]isoxazol-3-amine]
CC50 at 72 h [2]: 3000 nM
Max (%) ([3]; Day 3): 2.56%
Min (%) ([3]; Day 3): −8.75%
Max (%) ([3]; Day 6): 2.88%
Min (%) ([3]; Day 6): −27.04%
Bottom (%) ([4]; PC-07-0024, Day 3): −11.36%
Top (%) ([4]; PC-07-0024, Day 3): 42.29%
Bottom (%) ([4]; PC-07-0024, Day 6): −26.68%
Top (%) ([4]; PC-07-0024, Day 6): 37.60%
Bottom (%) ([5]; LU-01-0523, Day 3): −5.49%
Top (%) ([5]; LU-01-0523, Day 3): 100.00%
Bottom (%) ([5]; LU-01-0523, Day 6): −16.14%
Top (%) ([5]; LU-01-0523, Day 6): 0.00%

SMILES: Cc1ccc2c(Nc3cc(CN4CCOCC4)cc(C(F)(F)F)c3)noc2c1C#Cc1cnc2cccnn12 [Compound 111]
IC50 [1, 9]: 1950 nM
CC50 [6]: > 42300 nM

SMILES: Cc1ccc2c(Nc3cc(CNC4CC4)cc(C(F)(F)F)c3)noc2c1C#Cc1cnc2cccnn12 [Compound 112]
IC50 [1, 9]: 1660 nM
CC50 [6]: 1360 nM

SMILES: Cc1ccc2c(Nc3cc(CN4CCCC4)cc(C(F)(F)F)c3)noc2c1C#Cc1cnc2cccnn12 [Compound 113]
IC50 [1, 9]: 2580 nM
CC50 [6]: 4250 nM

SMILES: Cc1ccc2c(Nc3cccc(C(C)(C)C#N)c3)noc2c1C#Cc1cnc2cccnn12 [Compound 115]
IC50 [1, 9]: 502 nM
CC50 [6]: 1900 nM

SMILES: Cc1ccc2c(Nc3cc(CN4CCOCC4)cc(C(C)(C)C#N)c3)noc2c1C#Cc1cnc2cccnn12 [Compound 117]
IC50 [1, 9]: 160 nM
CC50 [6]: > 57200 nM

SMILES: Cc1ccc2c(Nc3cccc(OC(F)(F)F)c3)noc2c1C#Cc1cnc2cccnn12 [Compound 120]
IC50 [1, 9]: 2950 nM
CC50 [6]: 2410 nM

SMILES: Cc1ccc2c(Nc3cncc(C(F)(F)F)c3)noc2c1C#Cc1cnc2cccnn12 [Compound 121]
IC50 [1, 9]: 62 nM
CC50 [6]: > 40000 nM
IC50 ([3]; Day 3, read-out: IC50): > 30000 nM
IC50 ([3]; Day 6, read-out: IC50): 29100 nM
Max (%) ([3]; Day 3): 49.93%
Min (%) ([3]; Day 3): −11.42%
Max (%) ([3]; Day 6): 51.14%
Min (%) ([3]; Day 6): −18.96%

IC50 ([3]; Homo sapiens, 72 h, Day 3, read-out: IC50): 22400 nM
IC50 ([3]; Homo sapiens, 144 h, Day 6, read-out: IC50): 15200 nM
SMILES: Cc1nc(Nc2ncc(C(=O)Nc3c(C)cccc3Cl)s2)cc(N2CCN(CCO)CC2)n1 [Dasatinib, reference compound]
Max (%) ([3]; Day 3): 66.18%
Min (%) ([3]; Day 3): 8.00%
Max (%) ([3]; Day 6): 89.06%
Min (%) ([3]; Day 6): 14.03%

IC50 ([4]; 72 h, PC-07-0024, Day 3, read-out: Relative IC50): 4 µM
IC50 ([4]; 144 h, PC-07-0024, Day 6, data exclsn, read-out: Relative IC50): 0.009 µM
IC50 ([4]; 144 h, PC-07-0024, Day 6, read-out: Relative IC50): 5.93 µM
IC50 ([5]; 72 h, LU-01-0523, Day 3, read-out: Relative IC50): > 30 µM
IC50 ([5]; 144 h, LU-01-0523, Day 6, read-out: Relative IC50): 1.34 µM
SMILES: Nc1ccn([C@@H]2O[C@H](CO)[C@@H](O)C2(F)F)c(=O)n1 [Gemcitabine]
Bottom (%) ([4]; PC-07-0024, Day 3): 10.21%
Top (%) ([4]; PC-07-0024, Day 3): 46.53%
Bottom (%) ([4]; PC-07-0024, Day 6): 23.38%
Top (%) ([4]; PC-07-0024, Day 6): 72.30%
Bottom (%) ([4]; PC-07-0024, Day 6, data exclsn): 0.00%
Top (%) ([4]; PC-07-0024, Day 6, data exclsn): 30.34%
Bottom (%) ([5]; LU-01-0523, Day 3): 4.79%
Top (%) ([5]; LU-01-0523, Day 3): 100.00%
Bottom (%) ([5]; LU-01-0523, Day 6): 0.00%
Top (%) ([5]; LU-01-0523, Day 6): 100.00%
